From PubChem BioAssay AID1963449 (Molecular Pharmacology Branch, DTP, NCI, 2024)

System: 596521-263-R-J1-PDC complex spheroid growth
Test: Anticancer human tumor 596521-263-R-J1-PDC patient-derived soft tissue sarcoma cell line growth inhibition [Asc]
Details: for IC50: curve of first compound; for viability, T/C: stronger effect = lower value
In short: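 Spheroid model: tumor line + HUVEC + hMSC. Single agents and combinations; top conc. at/near clinical Cmax (10 microM if undetermined), half-log dilutions. DMSO stocks at 800-fold test concentration.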

[1] = second compound 0.0316 µM, first compound 0.0316 µM
[2] = second compound 0.0316 µM, first compound 0.1 µM
[3] = second compound 0.1 µM, first compound 0.0316 µM
[4] = second compound 0.1 µM, first compound 0.1 µM
[5] = second compound 0.316 µM, first compound 0.0316 µM
[6] = second compound 0.316 µM, first compound 0.1 µM
[7] = second compound 1 µM, first compound 0.0316 µM
[8] = second compound 1 µM, first compound 0.1 µM
[9] = second compound 3.16 µM, first compound 0.0316 µM
[10] = second compound 3.16 µM, first compound 0.1 µM
[11] = second compound 10 µM, first compound 0.0316 µM
[12] = second compound 10 µM, first compound 0.1 µM
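Also: spheroids exposed to compounds for 7 days.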

With Cc1nc(N2CCC3(CC2)COC(C)C3N)c(CO)nc1Sc1ccnc(N)c1Cl (stereo unspecified) + CNC(C)C(=O)NC1CN(S(=O)(=O)c2cccc(S(=O)(=O)N3CCC4CCC(C(=O)NC(c5ccccc5)c5ccccc5)N4C(=O)C(NC(=O)C(C)NC)C3)c2)CCC2CCC(C(=O)NC(c3ccccc3)c3ccccc3)N2C1=O the IC50 (second compound 0.00316 µM) was greater than 3000 nM, the IC50 (second compound 0.01 µM) was greater than 3000 nM and the IC50 (second compound 0.0316 µM) was greater than 3000 nM. It also gave an IC50 (second compound 0.1 µM) of 2250 nM, an IC50 (second compound 0.316 µM) greater than 3000 nM and an IC50 (second compound 1 µM) of 1620 nM. It also gave a viability, T/C (second compound 0.00316 µM, first compound 0.00949 µM) of 101%, a viability, T/C (second compound 0.00316 µM, first compound 0.03 µM) of 93.3% and a viability, T/C (second compound 0.00316 µM, first compound 0.0949 µM) of 98.7%. The viability, T/C (second compound 0.00316 µM, first compound 0.3 µM) was 97.3%, the viability, T/C (second compound 0.00316 µM, first compound 0.949 µM) was 75.8% and the viability, T/C (second compound 0.00316 µM, first compound 3 µM) was 57.6%. For the same molecule, the viability, T/C (second compound 0.01 µM, first compound 0.00949 µM) was 96.9%, the viability, T/C (second compound 0.01 µM, first compound 0.03 µM) was 87.4% and the viability, T/C (second compound 0.01 µM, first compound 0.0949 µM) was 89.8%. It also gave a viability, T/C (second compound 0.01 µM, first compound 0.3 µM) of 80.6%, a viability, T/C (second compound 0.01 µM, first compound 0.949 µM) of 73.1% and a viability, T/C (second compound 0.01 µM, first compound 3 µM) of 61%. The viability, T/C (second compound 0.0316 µM, first compound 0.00949 µM) was 102%, the viability, T/C (second compound 0.0316 µM, first compound 0.03 µM) was 82.2% and the viability, T/C (second compound 0.0316 µM, first compound 0.0949 µM) was 94.2%. It also gave a viability, T/C (second compound 0.0316 µM, first compound 0.3 µM) of 77%, a viability, T/C (second compound 0.0316 µM, first compound 0.949 µM) of 71.5% and a viability, T/C (second compound 0.0316 µM, first compound 3 µM) of 50.7%. It also gave a viability, T/C (second compound 0.1 µM, first compound 0.00949 µM) of 90.5%, a viability, T/C (second compound 0.1 µM, first compound 0.03 µM) of 82.2% and a viability, T/C (second compound 0.1 µM, first compound 0.0949 µM) of 77.1%. The viability, T/C (second compound 0.1 µM, first compound 0.3 µM) was 75.5%, the viability, T/C (second compound 0.1 µM, first compound 0.949 µM) was 63.1% and the viability, T/C (second compound 0.1 µM, first compound 3 µM) was 45.3%. It also gave a viability, T/C (second compound 0.316 µM, first compound 0.00949 µM) of 79.2%, a viability, T/C (second compound 0.316 µM, first compound 0.03 µM) of 81.5% and a viability, T/C (second compound 0.316 µM, first compound 0.0949 µM) of 78.9%. It also gave a viability, T/C (second compound 0.316 µM, first compound 0.3 µM) of 69.8%, a viability, T/C (second compound 0.316 µM, first compound 0.949 µM) of 67.7% and a viability, T/C (second compound 0.316 µM, first compound 3 µM) of 49.8%. It also gave a viability, T/C (second compound 1 µM, first compound 0.00949 µM) of 80.3%, a viability, T/C (second compound 1 µM, first compound 0.03 µM) of 71.2% and a viability, T/C (second compound 1 µM, first compound 0.0949 µM) of 72.4%. For the same molecule, the viability, T/C (second compound 1 µM, first compound 0.3 µM) was 65.7%, the viability, T/C (second compound 1 µM, first compound 0.949 µM) was 58.5% and the viability, T/C (second compound 1 µM, first compound 3 µM) was 41.4%.

Cn1ncnc1[C@H]1c2n[nH]c(=O)c3cc(F)cc(c23)N[C@@H]1c1ccc(F)cc1 + Cc1c(S(C)(=O)=O)c(-c2cc(F)cc(N3CCN(c4ccc(NS(=O)(=O)c5ccc(NC(CCN6CCC(C(=O)OCCCP(=O)(O)O)CC6)CSc6ccccc6)c(S(=O)(=O)C(F)(F)F)c5)cc4)CC3)c2)c(-c2ccc(Cl)cc2)n1C(C)C was tested, and the IC50 (second compound 0.0316 µM) was greater than 100 nM, the IC50 (second compound 0.1 µM) was greater than 100 nM and the IC50 (second compound 0.316 µM) was greater than 100 nM. For the same molecule, the IC50 (second compound 1 µM) was greater than 100 nM, the IC50 (second compound 3.16 µM) was 38.5 nM and the IC50 (second compound 10 µM) was 1.07 nM. The viability, T/C (second compound 0.0316 µM, first compound 0.000316 µM) was 97.5%, the viability, T/C (second compound 0.0316 µM, first compound 0.001 µM) was 112% and the viability, T/C (second compound 0.0316 µM, first compound 0.00316 µM) was 81.9%. The viability, T/C (second compound 0.0316 µM, first compound 0.01 µM) was 94.1%, the viability, T/C [1] was 87.4% and the viability, T/C [2] was 79.3%. It also gave a viability, T/C (second compound 0.1 µM, first compound 0.000316 µM) of 90.6%, a viability, T/C (second compound 0.1 µM, first compound 0.001 µM) of 97.8% and a viability, T/C (second compound 0.1 µM, first compound 0.00316 µM) of 94.3%. For the same molecule, the viability, T/C (second compound 0.1 µM, first compound 0.01 µM) was 81.6%, the viability, T/C [3] was 78.5% and the viability, T/C [4] was 74.5%. It also gave a viability, T/C (second compound 0.316 µM, first compound 0.000316 µM) of 88.5%, a viability, T/C (second compound 0.316 µM, first compound 0.001 µM) of 86.6% and a viability, T/C (second compound 0.316 µM, first compound 0.00316 µM) of 77.7%. The viability, T/C (second compound 0.316 µM, first compound 0.01 µM) was 82.8%, the viability, T/C [5] was 75.5% and the viability, T/C [6] was 73.4%. For the same molecule, the viability, T/C (second compound 1 µM, first compound 0.000316 µM) was 90.9%, the viability, T/C (second compound 1 µM, first compound 0.001 µM) was 85.3% and the viability, T/C (second compound 1 µM, first compound 0.00316 µM) was 85.2%. It also gave a viability, T/C (second compound 1 µM, first compound 0.01 µM) of 65%, a viability, T/C [7] of 68.4% and a viability, T/C [8] of 61.1%. For the same molecule, the viability, T/C (second compound 3.16 µM, first compound 0.000316 µM) was 58.7%, the viability, T/C (second compound 3.16 µM, first compound 0.001 µM) was 69.5% and the viability, T/C (second compound 3.16 µM, first compound 0.00316 µM) was 57.3%. For the same molecule, the viability, T/C (second compound 3.16 µM, first compound 0.01 µM) was 57.4%, the viability, T/C [9] was 52.6% and the viability, T/C [10] was 40.2%. For the same molecule, the viability, T/C (second compound 10 µM, first compound 0.000316 µM) was 54.1%, the viability, T/C (second compound 10 µM, first compound 0.001 µM) was 50.3% and the viability, T/C (second compound 10 µM, first compound 0.00316 µM) was 43.6%. The viability, T/C (second compound 10 µM, first compound 0.01 µM) was 42%, the viability, T/C [11] was 42% and the viability, T/C [12] was 28.9%.

O=C(c1cc(Cc2n[nH]c(=O)c3ccccc23)ccc1F)N1CCN(C(=O)C2CC2)CC1 + Cc1c(S(C)(=O)=O)c(-c2cc(F)cc(N3CCN(c4ccc(NS(=O)(=O)c5ccc(NC(CCN6CCC(C(=O)OCCCP(=O)(O)O)CC6)CSc6ccccc6)c(S(=O)(=O)C(F)(F)F)c5)cc4)CC3)c2)c(-c2ccc(Cl)cc2)n1C(C)C gave an IC50 (second compound 0.0316 µM) greater than 10000 nM, an IC50 (second compound 0.1 µM) greater than 10000 nM and an IC50 (second compound 0.316 µM) of 8230 nM. For the same molecule, the IC50 (second compound 1 µM) was 5330 nM, the IC50 (second compound 3.16 µM) was 1380 nM and the IC50 (second compound 10 µM) was less than 31.6 nM. For the same molecule, the viability, T/C [1] was 100%, the viability, T/C [2] was 95.7% and the viability, T/C (second compound 0.0316 µM, first compound 0.316 µM) was 88.8%. It also gave a viability, T/C (second compound 0.0316 µM, first compound 1 µM) of 89.3%, a viability, T/C (second compound 0.0316 µM, first compound 3.16 µM) of 85.7% and a viability, T/C (second compound 0.0316 µM, first compound 10 µM) of 59.4%. It also gave a viability, T/C [3] of 96.3%, a viability, T/C [4] of 102% and a viability, T/C (second compound 0.1 µM, first compound 0.316 µM) of 86.4%. The viability, T/C (second compound 0.1 µM, first compound 1 µM) was 98.2%, the viability, T/C (second compound 0.1 µM, first compound 3.16 µM) was 76.2% and the viability, T/C (second compound 0.1 µM, first compound 10 µM) was 54%. It also gave a viability, T/C [5] of 94%, a viability, T/C [6] of 92.8% and a viability, T/C (second compound 0.316 µM, first compound 0.316 µM) of 79.5%. It also gave a viability, T/C (second compound 0.316 µM, first compound 1 µM) of 85.9%, a viability, T/C (second compound 0.316 µM, first compound 3.16 µM) of 61.2% and a viability, T/C (second compound 0.316 µM, first compound 10 µM) of 47.5%. It also gave a viability, T/C [7] of 78.8%, a viability, T/C [8] of 80.1% and a viability, T/C (second compound 1 µM, first compound 0.316 µM) of 68.3%. For the same molecule, the viability, T/C (second compound 1 µM, first compound 1 µM) was 71.2%, the viability, T/C (second compound 1 µM, first compound 3.16 µM) was 61% and the viability, T/C (second compound 1 µM, first compound 10 µM) was 37.7%. For the same molecule, the viability, T/C [9] was 61%, the viability, T/C [10] was 63.8% and the viability, T/C (second compound 3.16 µM, first compound 0.316 µM) was 55.8%. For the same molecule, the viability, T/C (second compound 3.16 µM, first compound 1 µM) was 56.5%, the viability, T/C (second compound 3.16 µM, first compound 3.16 µM) was 35.2% and the viability, T/C (second compound 3.16 µM, first compound 10 µM) was 22.1%. It also gave a viability, T/C [11] of 52.7%, a viability, T/C [12] of 46.4% and a viability, T/C (second compound 10 µM, first compound 0.316 µM) of 44.8%. For the same molecule, the viability, T/C (second compound 10 µM, first compound 1 µM) was 43.4%, the viability, T/C (second compound 10 µM, first compound 3.16 µM) was 36.3% and the viability, T/C (second compound 10 µM, first compound 10 µM) was 16.5%.
